How the values were obtained:
[1] = placebo-controlled, randomized, double-blind, parallel-group human study of red blood cell count, hemoglobin concentration and blood taurine level; format: in vivo; conditions: male and female adults, one capsule with 20 mg L-ergothioneine per day for four weeks, pre-testing to week 4, versus control food group
Protocol: In order to evaluate the influence of supplements containing ergothioneine on the red blood cell count in the blood, blood hemoglobin concentration, and blood taurine level, a placebo-controlled, randomized, double-blind, parallel-group study was conducted on subjects including male and female adults (46 subjects in a test food group; 46 subjects in a control food group; 92 subjects in total). In this study, one capsule containing 20 mg ergothioneine (test food) or one capsule not containing ergothioneine (control food) was fed per day for four weeks. The red blood cell count in the blood, blood hemoglobin concentration, and blood taurine level of each subject were measured for pre-testing before starting the study (before starting ingestion of the test food or control food). After ingestion of the test food or control food for four weeks, the red blood cell count in the blood, blood hemoglobin concentration, and blood taurine level of each subject were measured again (testing on week 4). The red blood cell count in the blood and blood hemoglobin concentration were measured by known methods. […] Specifically, the amount of change in the test food group at the time of testing on week 4 was determined by subtracting the measurements (average) of the test food group at the time of pre-testing from the measurements (average) of the test food group at the time of testing on week 4. Similarly, the amount of change in the control food group at the time of testing on week 4 was determined by subtracting the measurements (average) at the time of pre-testing from the measurements (average) at the time of testing on week 4. […]

[2] = mice orally administered, versus mice not administered; cited from earlier work

## C[N+](C)(C)[C@@H](Cc1c[nH]c(=S)[nH]1)C(=O)[O-] [L-ergothioneine]
[1]
  change in blood hemoglobin concentration: significantly increased
  change in blood taurine level (CE-TOF-MS): significantly increased
  change in red blood cell count in the blood: significantly increased
[2]
  peritesticular fat weight: lower
  triglyceride (neutral fat) level in plasma: lower

— patent publication US20240180876A1, “COMPOSITION FOR INCREASING RED BLOOD CELLS AND/OR HEMOGLOBIN” (SUNTORY HOLDINGS LIMITED, priority 2021, published 2024)
